In the assay the target is human GLP-1R (Homo sapiens, UniProt P43220, G168S). Put plainly: CHO GLP-1R Clone H6—Assay 1: HTRF cAMP cell-based functional agonist assay (high GLP-1R density). As to conditions: for EC50: read-out: Assay 1 EC50, CHO GLP-1R Clone H6, cAMP HTRF, geometric mean; for Emax: read-out: Assay 1 Emax (%), CHO GLP-1R Clone H6. On the technique in general: TR-FRET usually uses a lanthanide donor and a delayed reading to cut background.

[1] abbreviates: relative to saturating concentration of full agonist GLP-1 (1 μM), arithmetic mean.

Sequence of human GLP-1R (P43220 24-463 G168S limits assumed): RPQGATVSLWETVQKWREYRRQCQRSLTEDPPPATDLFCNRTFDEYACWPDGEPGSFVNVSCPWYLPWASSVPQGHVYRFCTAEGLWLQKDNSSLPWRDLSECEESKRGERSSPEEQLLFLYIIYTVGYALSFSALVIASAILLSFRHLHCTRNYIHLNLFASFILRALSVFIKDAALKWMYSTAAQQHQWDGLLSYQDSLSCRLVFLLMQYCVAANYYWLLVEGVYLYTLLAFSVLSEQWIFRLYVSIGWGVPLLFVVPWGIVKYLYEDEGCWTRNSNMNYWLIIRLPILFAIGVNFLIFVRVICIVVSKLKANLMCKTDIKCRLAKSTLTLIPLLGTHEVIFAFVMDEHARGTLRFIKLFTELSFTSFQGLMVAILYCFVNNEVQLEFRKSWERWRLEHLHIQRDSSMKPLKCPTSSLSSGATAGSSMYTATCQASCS

Usually EC50 stands for the midpoint of the concentration-response curve. One may read the Emax as the size of the effect at its maximum, as opposed to the concentration needed. `Cn1c(CN2CCC(c3cccc(OCc4ccccc4)n3)CC2)nc2ccc(C(=O)O)cc21` [Example 9A-01, 2-((4-(6-(Benzyloxy)pyridin-2-yl)piperidin-1-yl)methyl)-1-methyl-1H-benzo[d]imidazole-6-carboxylic acid]: the EC50 was found to be 1200 nM. Moreover, under setting [1], the Emax worked out at 78%.

Turning to `Cn1c(CN2CCC(c3cccc(OCc4ccc(C(F)(F)F)cc4F)n3)CC2)nc2ccc(C(=O)O)cc21` [Example 9A-02, 2-{[4-(6-{[2-fluoro-4-(trifluoromethyl)benzyl]oxy}pyridin-2-yl)piperidin-1-yl]methyl}-1-methyl-1H-benzimidazole-6-carboxylic acid], the EC50 turned out to be 79 nM. Under setting [1], the Emax stood at 81%.

Consider `Cn1c(CN2CCC(c3cccc(OCc4ccc(F)cc4F)n3)CC2)nc2ccc(C(=O)O)cc21` [Example 9A-03, 2-[(4-{6-[(2,4-difluorobenzyl)oxy]pyridin-2-yl}piperidin-1-yl)methyl]-1-methyl-1H-benzimidazole-6-carboxylic acid], for which the EC50 was 200 nM. Further, the Emax under setting [1] was found to be 79%.

Consider `Cn1c(CN2CCC(c3cccc(OCc4c(F)cccc4F)n3)CC2)nc2ccc(C(=O)O)cc21` [Example 9A-04, 2-[(4-{6-[(2,6-difluorobenzyl)oxy]pyridin-2-yl}piperidin-1-yl)methyl]-1-methyl-1H-benzimidazole-6-carboxylic acid], for which the EC50 stood at 2900 nM. Also, under setting [1], the maximal response (Emax) worked out at 89%.

With `Cn1c(CN2CCC(c3cccc(OCc4ccc(Cl)cc4)n3)CC2)nc2ccc(C(=O)O)cc21` [Example 9A-05, 2-[(4-{6-[(4-chlorobenzyl)oxy]pyridin-2-yl}piperidin-1-yl)methyl]-1-methyl-1H-benzimidazole-6-carboxylic acid], the EC50 was 2700 nM. The Emax under setting [1] was 85%.

On to `Cn1c(CN2CCC(c3cccc(OCc4ccccc4F)n3)CC2)nc2ccc(C(=O)O)cc21` [Example 9A-06, 2-[(4-{6-[(2-fluorobenzyl)oxy]pyridin-2-yl}piperidin-1-yl)methyl]-1-methyl-1H-benzimidazole-6-carboxylic acid], for which the EC50 stood at 870 nM. The Emax under setting [1] amounted to 82%.

As for `Cn1c(CN2CCC(c3cccc(OCc4cccc(F)c4F)n3)CC2)nc2ccc(C(=O)O)cc21` [Example 9A-08, 2-[(4-{6-[(2,3-difluorobenzyl)oxy]pyridin-2-yl}piperidin-1-yl)methyl]-1-methyl-1H-benzimidazole-6-carboxylic acid], the EC50 worked out at 2400 nM. Besides, the Emax under setting [1] came to 87%.

Consider `Cn1c(CN2CCC(c3cccc(OCc4ccc(OC(F)(F)F)cc4)n3)CC2)nc2ccc(C(=O)O)cc21` [Example 9A-09, 1-methyl-2-{[4-(6-{[4-(trifluoromethoxy)benzyl]oxy}pyridin-2-yl)piperidin-1-yl]methyl}-1H-benzimidazole-6-carboxylic acid], for which the EC50 turned out to be 880 nM. Also, the Emax under setting [1] came out at 59%.

As for `Cn1c(CN2CCC(c3cccc(OCc4ccccc4OC(F)(F)F)n3)CC2)nc2ccc(C(=O)O)cc21` [Example 9A-10, 1-methyl-2-{[4-(6-{[2-(trifluoromethoxy)benzyl]oxy}pyridin-2-yl)piperidin-1-yl]methyl}-1H-benzimidazole-6-carboxylic acid], the EC50 was found to be 4500 nM. For the same compound, the Emax under setting [1] worked out at 48%.

Regarding `Cc1ccccc1COc1cccc(C2CCN(Cc3nc4ccc(C(=O)O)cc4n3C)CC2)n1` [Example 9A-11, 1-methyl-2-[(4-{6-[(2-methylbenzyl)oxy]pyridin-2-yl}piperidin-1-yl)methyl]-1H-benzimidazole-6-carboxylic acid], the EC50 was 1600 nM. Further, under setting [1], the Emax was 83%.

On to `Cn1c(CN2CCC(c3cccc(OCc4cccc(C#N)c4)n3)CC2)nc2ccc(C(=O)O)cc21` [Example 9A-12, 2-[(4-{6-[(3-cyanobenzyl)oxy]pyridin-2-yl}piperidin-1-yl)methyl]-1-methyl-1H-benzimidazole-6-carboxylic acid], for which the EC50 is above 17000 nM. Besides, under setting [1], the Emax is 100%.

With `Cn1c(CN2CCC(c3cccc(OCc4ccc(C(F)(F)F)cc4)n3)CC2)nc2ccc(C(=O)O)cc21` [Example 9A-13, 1-methyl-2-{[4-(6-{[4-(trifluoromethyl)benzyl]oxy}pyridin-2-yl)piperidin-1-yl]methyl}-1H-benzimidazole-6-carboxylic acid], the EC50 turned out to be 170 nM. Besides, the Emax under setting [1] amounted to 68%.

Regarding `Cn1c(CN2CCC(c3cccc(OCc4cc(F)ccc4F)n3)CC2)nc2ccc(C(=O)O)cc21` [Example 9A-14, 2-[(4-{6-[(2,5-difluorobenzyl)oxy]pyridin-2-yl}piperidin-1-yl)methyl]-1-methyl-1H-benzimidazole-6-carboxylic acid], the EC50 was 1800 nM. Moreover, the Emax under setting [1] came to 93%.

For `CN(C)CCn1c(CN2CCC(c3cccc(OCc4ccc(Cl)cc4F)n3)CC2)nc2ccc(C(=O)O)cc21` [Example 10A-11], the EC50 was 75 nM. The Emax under setting [1] was 69%.

For `CN1CC(Cn2c(CN3CCC(c4cccc(OCc5ccc(Cl)cc5F)n4)CC3)nc3ccc(C(=O)O)cc32)C1` [Example 10A-19], under setting [1], the Emax was determined as 100%.

In the case of `Cc1nnc(CCn2c(CN3CCC(c4cccc(OCc5ccc(Cl)cc5F)n4)CC3)nc3ccc(C(=O)O)cc32)o1` [Example 10A-28], the EC50 came to 190 nM. Further, the Emax under setting [1] came to 71%.

Consider `Cc1nnc(Cn2c(CN3CCC(c4cccc(OCc5ccc(Cl)cc5F)n4)CC3)nc3ccc(C(=O)O)cc32)o1` [Example 10A-29], for which the EC50 was found to be 390 nM. The Emax under setting [1] came to 82%.

With `Cn1cnc(Cn2c(CN3CCC(c4cccc(OCc5ccc(Cl)cc5F)n4)CC3)nc3ccc(C(=O)O)cc32)c1` [Example 10A-30], the EC50 worked out at 550 nM. Moreover, the Emax under setting [1] is 71%.

On to `Cn1ccnc1Cn1c(CN2CCC(c3cccc(OCc4ccc(Cl)cc4F)n3)CC2)nc2ccc(C(=O)O)cc21` [Example 10A-38], for which the EC50 came to 130 nM. Further, under setting [1], the Emax turned out to be 72%.

As to `CCn1c(CN2CCC(c3cccc(OCc4ccc(Cl)cc4F)n3)CC2)nc2ccc(C(=O)O)cc21` [Example 10A-39], the EC50 was 170 nM. Moreover, the Emax under setting [1] came out at 69%.

As for `CC(C)n1c(CN2CCC(c3cccc(OCc4ccc(Cl)cc4F)n3)CC2)nc2ccc(C(=O)O)cc21` [Example 10A-40], the EC50 is 1200 nM. Where the note is “CHO GLP-1R Clone H6, relative to saturating concentration of full agonist GLP-1 (1 μM), arithmetic mean”, the “Assay 1 Emax (%)” value is 53%.

Consider `CC(C)(C)n1cnnc1Cn1c(CN2CCC(c3cccc(OCc4ccc(Cl)cc4F)n3)CC2)nc2ccc(C(=O)O)cc21` [Example 10A-46], for which the EC50 was determined as 1700 nM. Under setting [1], the Emax was 80%.

As for `C[C@H]1CN(c2cccc(OCc3ccc(C#N)cc3)n2)CCN1Cc1nc2ccc(C(=O)O)cc2n1C[C@@H]1CCO1` [Example 10A-49, 2-{[(2S)-4-{6-[(4-cyanobenzyl)oxy]pyridin-2-yl}-2-methylpiperazin-1-yl]methyl}-1-[(2S)-oxetan-2-ylmethyl]-1H-benzimidazole-6-carboxylic acid], the EC50 came to 0.56 nM. Also, the Emax under setting [1] is 73%.

Turning to `O=C(O)c1ccc2nc(CN3CCC(c4cccc(OCc5ccc(Cl)cc5F)n4)CC3)n(CCO)c2c1` [Example 10A-50], the EC50 is 290 nM. In addition, the Emax under setting [1] turned out to be 64%.

Regarding `CCc1nc(Cn2c(CN3CCC(c4cccc(OCc5ccc(Cl)cc5F)n4)CC3)nc3ccc(C(=O)O)cc32)no1` [Example 10A-51], the EC50 was 390 nM. Besides, the Emax under setting [1] was determined as 72%.

The values above are taken from US10208019B2, “GLP-1 receptor agonists and uses thereof” (Pfizer Inc., priority 2016, dated 2019).
